The values below come from ChEMBL document CHEMBL1133456, “Synthesis and anticonvulsant activity of novel and potent 6,7-methylenedioxyphthalazin-1(2H)-ones” (J Med Chem, 2000).

Data set [1] can be described thus: Toxic dose in DBA/2 mice; Values ranges from: 52.0-194. It counts as toxicity. Particulars: DBA/2, mouse, in vivo.
Data set [2] can be described thus: Ratio between TD50 and ED50 from the clonic phase of audiogenic seizures in mice. Particulars: mouse, in vivo; read-out: Protective index. The class given is ADME, organism-based.
A short description of data set [3]: Relative lipophilicity expressed as Rm value. It counts as physicochemical. Particulars: octanol/water.
The nature of data set [4]: Toxic dose in DBA/2 mice; Values ranges from: 82.6-306. It counts as toxicity. Particulars: DBA/2, mouse, in vivo.
Data set [5] in a line: Anticonvulsant activity against audiogenic seizures in DBA/2 mice in clonic phase at a time interval of 45 min after intraperitoneal administration; Values ranges from: 27.2-52.1. The class given is functional. Particulars: Mus musculus, ip, 0.75 h.
Data set [6] is described as follows: Toxic does was determined in DBA/2 mice; Values ranges from: 47.5-122. Particulars: DBA/2, mouse. It counts as toxicity.
The nature of data set [7]: Anticonvulsant activity against ATPA induced seizures in DBA/2 mice. activity is expressed as ED50 values in clonus phase; Values ranges from: 45.4-89.7. The class given is functional. Particulars: Mus musculus.
Data set [8] can be described thus: Anticonvulsant activity against ATPA induced seizures in DBA/2 mice. activity is expressed as ED50 values in tonus phase; Values ranges from: 32.4-57.3. It counts as functional. Particulars: Mus musculus.
The nature of data set [9]: Anticonvulsant activity against AMPA induced seizures in DBA/2 mice expressed as ED50 values in clonic phase; Values ranges from: 27.1-47.3. The class given is functional. Particulars: Mus musculus.
The nature of data set [10]: Anticonvulsant activity against maximal electroshock (MES) induced seizures in Swiss mice; Values ranges from: 29.9-57.3. The class given is functional. Particulars: Mus musculus.
Data set [11] in a line: Anticonvulsant activity against audiogenic seizures in DBA/2 mice after pretreatment with Aniracetam expressed as ED50 values in tonic phase; Values ranges from: 21.9-46.8. The class given is functional. Particulars: Mus musculus.
Data set [12] can be described thus: Toxic dose in DBA/2 mice; Values ranges from: 44.3-81.6. The class given is toxicity. Particulars: DBA/2, mouse, in vivo.
The nature of data set [13]: Anticonvulsant activity against KA induced seizures in swiss mice; Values ranges from: 30.3-50.1. Particulars: Mus musculus. It counts as functional.
Data set [14] can be described thus: Anticonvulsant activity against audiogenic seizures in DBA/2 mice in clonic phase at a time interval of 30 min after intraperitoneal administration; Values ranges from: 9.04-49.8. The class given is functional. Particulars: Mus musculus, ip, 0.5 h.
Data set [15] can be described thus: Anticonvulsant activity against audiogenic seizures in DBA/2 mice expressed as ED50 values in clonic phase; Values ranges from: 9.04-49.8. The class given is functional. Particulars: Mus musculus.
Data set [16] in a line: Anticonvulsant activity against ATPA induced seizures in DBA/2 mice expressed as ED50 values in tonic phase; Values ranges from: 22.7-44.8. Particulars: Mus musculus. The class given is functional.
A short description of data set [17]: Anticonvulsant activity against audiogenic seizures in DBA/2 mice expressed as ED50 values in tonic phase; Values ranges from: 2.47-23.1. It counts as functional. Particulars: Mus musculus.
Data set [18] is described as follows: Anticonvulsant activity against audiogenic seizures in DBA/2 mice in clonic phase at a time interval of 90 min after intraperitoneal administration; Values ranges from: 30.5-62.3. Particulars: Mus musculus, ip, 1.5 h. It counts as functional.
Data set [19] is described as follows: Anticonvulsant activity against Pentylenetetrazole (PTZ) induced seizures in Swiss mice; Values ranges from: 30.9-78.8. It counts as functional. Particulars: Mus musculus.
Data set [20] is described as follows: Anticonvulsant activity against audiogenic seizures in DBA/2 mice in clonic phase at a time interval of 15 min after intraperitoneal administration; Values ranges from: 25.1-42.6. Particulars: Mus musculus, ip, 0.25 h. The class given is functional.
Data set [21] can be described thus: Anticonvulsant activity against AMPA induced seizures in DBA/2 mice expressed as ED50 values in tonic phase; Values ranges from: 32.6-62.7. It counts as functional. Particulars: Mus musculus.
The nature of data set [22]: Anticonvulsant activity against audiogenic seizures in DBA/2 mice in clonic phase at a time interval of 45 min after intraperitoneal administration; Values ranges from: 13.8-41.2. Particulars: Mus musculus, ip, 0.75 h. The class given is functional.
A short description of data set [23]: Anticonvulsant activity against audiogenic seizures in DBA/2 mice in clonic phase at a time interval of 60 min after intraperitoneal administration; Values ranges from: 18.8-47.0. The class given is functional. Particulars: Mus musculus, ip, 1 h.
The nature of data set [24]: Anticonvulsant activity against ATPA induced seizures in DBA/2 mice expressed as ED50 values in clonic phase; Values ranges from: 25.8-57.7. The class given is functional. Particulars: Mus musculus.
Data set [25] can be described thus: Anticonvulsant activity against audiogenic seizures in DBA/2 mice in clonic phase at a time interval of 120 min after intraperitoneal administration. The class given is functional. Particulars: Mus musculus, ip, 2 h.
The nature of data set [26]: Anticonvulsant activity against audiogenic seizures in DBA/2 mice after pretreatment with Aniracetam expressed as ED50 values in clonic phase; Values ranges from: 40.9-79.2. The class given is functional. Particulars: Mus musculus.
Data set [27] in a line: Toxic dose in DBA/2 mice; Values ranges from: 74.8-169. It counts as toxicity. Particulars: DBA/2, mouse, in vivo.
Data set [28] can be described thus: Anticonvulsant activity against audiogenic seizures in DBA/2 mice expressed as ED50 values in tonic phase; Values ranges from: 19.4-50.6. It counts as functional. Particulars: Mus musculus.
Data set [29] can be described thus: Anticonvulsant activity against audiogenic seizures in DBA/2 mice expressed as ED50 values in clonic phase; Values ranges from: 24.4-55.1. The class given is functional. Particulars: Mus musculus.
A short description of data set [30]: Anticonvulsant activity against audiogenic seizures in DBA/2 mice expressed as ED50 values in tonic phase; Values ranges from: 8.98-27.3. The class given is functional. Particulars: Mus musculus.
The nature of data set [31]: Anticonvulsant activity against audiogenic seizures in DBA/2 mice expressed as ED50 values in clonic phase; […]. The class given is functional. Particulars: Mus musculus.
The nature of data set [32]: Toxic dose in DBA/2 mice; Values ranges from: 59.5-88.2. It counts as toxicity. Particulars: DBA/2, mouse, in vivo.
Data set [33] can be described thus: Anticonvulsant activity against audiogenic seizures in DBA/2 mice expressed as ED50 values in tonic phase. The class given is functional. Particulars: Mus musculus.
The nature of data set [34]: Anticonvulsant activity against audiogenic seizures in DBA/2 mice expressed as ED50 values in clonic phase. It counts as functional. Particulars: Mus musculus.
The nature of data set [35]: Toxic dose in DBA/2 mice. It counts as toxicity. Particulars: DBA/2, mouse, in vivo.
Data set [36] in a line: Ratio between TD50 and ED50 from the clonic phase of audiogenic seizures. The class given is ADME. Particulars: read-out: Protective index.
Data set [37] is described as follows: Anticonvulsant activity against audiogenic seizures in DBA/2 mice expressed as ED50 values in tonic phases; Values ranges from: 4.02-19.9. The class given is functional. Particulars: Mus musculus.
Data set [38] in a line: Toxic dose in DBA/2 mice; Values ranges from: 36.1-82.9. The class given is toxicity. Particulars: DBA/2, mouse, in vivo.
A short description of data set [39]: Anticonvulsant activity against audiogenic seizures in DBA/2 mice expressed as ED50 values in clonic phase; Values ranges from: 6.52-35.4. The class given is functional. Particulars: Mus musculus.

The TD50 is the dose at which the toxic effect under study appears in half of the subjects. High values mean lower toxicity, low ones greater toxicity. As for `Nc1cccc(C2=NNC(=O)Cc3cc4c(cc32)OCO4)c1`, the TD50 in data set [1] is 101 µmol/kg. The selectivity ratio in data set [2] is 5.6. The Rm in data set [3] is on record as -0.372.
Take `O=C1Cc2cc3c(cc2C(c2ccccc2)=NN1)OCO3`: the TD50 in [4] turned out to be 159 µmol/kg. The selectivity ratio in [2] worked out at 3.7. In data set [3], this molecule yielded a Rm of -0.142.
What is called ED50 is the dose that gives a 50% effect, or the effect in half of the subjects. For `CC1=NN=C(c2ccc(N)cc2)c2cc3c(cc2C1)OCO3` [GYKI-52466], the ED50 in data set [5] came to 37.3 µmol/kg; in data set [7], 63.8 µmol/kg; in data set [8] it was 43.1 µmol/kg. Further, the TD50 in data set [6] came out at 76.1 µmol/kg. In addition, the selectivity ratio in data set [2] stood at 2.1. The molecule also displayed a Rm in data set [3] of -0.304.
In the case of `Nc1ccc(-c2nnc(O)c3cc4c(cc23)OCO4)cc1`, the ED50 is 35.8 µmol/kg in [9]; 41.4 µmol/kg in [10]; 32 µmol/kg in data set [11]; 38.9 µmol/kg in [13]; 21.2 µmol/kg in [14]; 21.2 µmol/kg in [15]. The ED50 in data set [16] amounted to 31.9 µmol/kg; in [17], 7.56 µmol/kg; in [18], 43.6 µmol/kg; in [19] it was 49.4 µmol/kg; in data set [20] it was 32.7 µmol/kg; in data set [21], 45.2 µmol/kg. Also, the ED50 in data set [22] is 23.8 µmol/kg; in [23], 29.7 µmol/kg; in [24], 38.6 µmol/kg; in data set [25] it was more than 50 µmol/kg; in data set [26] it was 56.9 µmol/kg. This molecule showed a TD50 in [12] of 60.1 µmol/kg. Besides, in data set [2], the selectivity ratio was determined as 2.8. For the same molecule, the Rm in data set [3] is listed as -0.454.
With `Oc1nnc(-c2ccccc2)c2cc3c(cc12)OCO3`, the TD50 in data set [27] was determined as 112 µmol/kg. The results for the ED50 in [28] and in data set [29] were 31.3 µmol/kg and 36.7 µmol/kg, respectively. Moreover, in data set [2], the selectivity ratio turned out to be 3.1. This molecule gave a Rm in data set [3] of -0.158.
For the molecule `Nc1cccc(-c2nnc(O)c3cc4c(cc23)OCO4)c1`, the ED50 was 15.7 µmol/kg in data set [30] and 23.3 µmol/kg in [31]. Also, in data set [32], the TD50 is 72.4 µmol/kg. In addition, in [2], the selectivity ratio amounted to 3.1. This molecule also showed a Rm in [3] of -0.399.
As for `CNC(=O)n1nc(-c2ccc(N)cc2)c2cc3c(cc2c1=O)OCO3`, the results for the ED50 in data set [33] and in data set [34] were 16.8 µmol/kg and 23.4 µmol/kg, respectively. This molecule yielded a Rm in [3] of -0.364. This molecule showed a TD50 in data set [35] of 59.4 µmol/kg. Besides, the selectivity ratio in [36] came to 2.5.
For `Nc1ccc(-c2nnc(S)c3cc4c(cc23)OCO4)cc1`, the selectivity ratio in data set [2] was 3.6. The ED50 came to 8.94 µmol/kg in [37] and 15.2 µmol/kg in [39]. In data set [38], this molecule showed a TD50 of 54.7 µmol/kg. This molecule also registered a Rm in data set [3] of -0.205.
